Measured values from PubChem BioAssay AID2060611 (Molecular Pharmacology Branch, DTP, NCI, 2025).
pIC50: −log10 of the molar value. “And” between values parts separate entries of the source, which are not always exact repeats. Identical values can stand only once.

Test system: 628569-122-R-J1-PDC complex spheroid viability
Assay: Anticancer human tumor 628569-122-R-J1-PDC patient-derived head and neck squamous carcinoma cell line growth inhibition [CLK]
Conditions: for viability, T/C: stronger effect = lower value
Method in brief: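 Patient-derived tumor cells grown as complex spheroids with HUVEC endothelial cells and mesenchymal stem cells, treated with drug combinations. Concentrations descend in half-log steps from near clinical Cmax, or from 10 microM if Cmax unknown.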

[1] = curve of first compound, second compound 0.0316 µM
[2] = curve of first compound, second compound 0.1 µM
[3] = curve of first compound, second compound 0.316 µM
[4] = curve of first compound, second compound 1 µM
[5] = curve of first compound, second compound 3.16 µM
[6] = curve of first compound, second compound 10 µM
[7] = second compound 0.0316 µM, first compound 0.0316 µM
[8] = second compound 0.0316 µM, first compound 0.1 µM
[9] = second compound 0.0316 µM, first compound 0.316 µM
[10] = second compound 0.0316 µM, first compound 1 µM
[11] = second compound 0.0316 µM, first compound 3.16 µM
[12] = second compound 0.0316 µM, first compound 10 µM
[13] = second compound 0.1 µM, first compound 0.0316 µM
[14] = second compound 0.1 µM, first compound 0.1 µM
[15] = second compound 0.1 µM, first compound 0.316 µM
[16] = second compound 0.1 µM, first compound 1 µM
[17] = second compound 0.1 µM, first compound 3.16 µM
[18] = second compound 0.1 µM, first compound 10 µM
[19] = second compound 0.316 µM, first compound 0.0316 µM
[20] = second compound 0.316 µM, first compound 0.1 µM
[21] = second compound 0.316 µM, first compound 0.316 µM
[22] = second compound 0.316 µM, first compound 1 µM
[23] = second compound 0.316 µM, first compound 3.16 µM
[24] = second compound 0.316 µM, first compound 10 µM
[25] = second compound 1 µM, first compound 0.0316 µM
[26] = second compound 1 µM, first compound 0.1 µM
[27] = second compound 1 µM, first compound 0.316 µM
[28] = second compound 1 µM, first compound 1 µM
[29] = second compound 1 µM, first compound 3.16 µM
[30] = second compound 1 µM, first compound 10 µM
[31] = second compound 3.16 µM, first compound 0.0316 µM
[32] = second compound 3.16 µM, first compound 0.1 µM
[33] = second compound 3.16 µM, first compound 0.316 µM
[34] = second compound 3.16 µM, first compound 1 µM
[35] = second compound 3.16 µM, first compound 3.16 µM
[36] = second compound 3.16 µM, first compound 10 µM
[37] = second compound 10 µM, first compound 0.0316 µM
[38] = second compound 10 µM, first compound 0.1 µM
[39] = second compound 10 µM, first compound 0.316 µM
[40] = second compound 10 µM, first compound 1 µM
[41] = second compound 10 µM, first compound 3.16 µM
[42] = second compound 10 µM, first compound 10 µM
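Note: spheroids exposed to agents for seven days before readout.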
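Throughout, for viability, T/C: 100% = DMSO vehicle control viability.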

Question: How did the pIC50 [1] turn out when `COc1cccc2c1C(=O)c1c(O)c3c(c(O)c1C2=O)CC(O)(C(=O)CO)CC3OC1CC(N)C(O)C(C)O1` (stereo not drawn) + CN1CCN(c2cc(C(=O)Nc3cc4cc(-c5cnn(C)c5)ccc4cn3)ccn2)CC1 was run?
Answer: 6.18

Question: What about the pIC50 [2] of the same compound?
Answer: 6.25

Question: What about the pIC50 [3] of the same compound?
Answer: > 7.50

Question: What about the pIC50 [4] of the same compound?
Answer: > 7.50

Question: And the pIC50 [5]?
Answer: > 7.50

Question: What about the pIC50 [6] of the same compound?
Answer: > 7.50

Question: What about the viability, T/C [7] of the same compound?
Answer: 79.8%

Question: What about the viability, T/C [8] of the same compound?
Answer: 64.6%

Question: What about the viability, T/C [9] of the same compound?
Answer: 114%

Question: What about the viability, T/C [10] of the same compound?
Answer: 29.3%

Question: What about the viability, T/C [11] of the same compound?
Answer: 9.76%

Question: What about the viability, T/C [12] of the same compound?
Answer: 6.19%

Question: And the viability, T/C [13]?
Answer: 69.3%

Question: What about the viability, T/C [14] of the same compound?
Answer: 85.4%

Question: What about the viability, T/C [15] of the same compound?
Answer: 96.8%

Question: And the viability, T/C [16]?
Answer: 17.1%

Question: And the viability, T/C [17]?
Answer: 11.4%

Question: And the viability, T/C [18]?
Answer: 6.38%

Question: What about the viability, T/C [19] of the same compound?
Answer: 36.8%

Question: And the viability, T/C [20]?
Answer: 58%

Question: What about the viability, T/C [21] of the same compound?
Answer: 15%

Question: What about the viability, T/C [22] of the same compound?
Answer: 4.91%

Question: And the viability, T/C [23]?
Answer: 9.87%

Question: What about the viability, T/C [24] of the same compound?
Answer: 7.68%

Question: And the viability, T/C [25]?
Answer: 7.46%

Question: What about the viability, T/C [26] of the same compound?
Answer: 5.6%

Question: And the viability, T/C [27]?
Answer: 6.96%

Question: What about the viability, T/C [28] of the same compound?
Answer: 8.8%

Question: What about the viability, T/C [29] of the same compound?
Answer: 7.92%

Question: And the viability, T/C [30]?
Answer: 4.27%

Question: And the viability, T/C [31]?
Answer: 10.7%

Question: What about the viability, T/C [32] of the same compound?
Answer: 6.4%

Question: What about the viability, T/C [33] of the same compound?
Answer: 4.58%

Question: And the viability, T/C [34]?
Answer: 8.38%

Question: What about the viability, T/C [35] of the same compound?
Answer: 7.51%

Question: What about the viability, T/C [36] of the same compound?
Answer: 3.19%

Question: And the viability, T/C [37]?
Answer: 2.99%

Question: What about the viability, T/C [38] of the same compound?
Answer: 3.91%

Question: What about the viability, T/C [39] of the same compound?
Answer: 1.4%

Question: What about the viability, T/C [40] of the same compound?
Answer: 7.4%

Question: And the viability, T/C [41]?
Answer: 3.49%

Question: What about the viability, T/C [42] of the same compound?
Answer: 0.29%

Question: Which results are given for `COc1ccc([C@@H](O)c2cc(-c3ncnc4cc(N5CCOCC5)ccc34)c(F)cc2Cl)nn1` + CN1CCN(c2cc(C(=O)Nc3cc4cc(-c5cnn(C)c5)ccc4cn3)ccn2)CC1?
Answer: pIC50 [1]: 5.68; pIC50 [2]: 6.50; pIC50 [3]: > 7.50; pIC50 [4]: > 7.50; pIC50 [5]: > 7.50; pIC50 [6]: > 7.50; viability, T/C [7]: 95.9%; viability, T/C [8]: 88.2%; viability, T/C [9]: 68.8%; viability, T/C [10]: 71.6%; viability, T/C [11]: 37.3%; viability, T/C [12]: 27.3%; viability, T/C [13]: 86.9%; viability, T/C [14]: 61.7%; viability, T/C [15]: 48.8%; viability, T/C [16]: 42.6%; viability, T/C [17]: 34.5%; viability, T/C [18]: 22.8%; viability, T/C [19]: 27.4%; viability, T/C [20]: 22.6%; viability, T/C [21]: 21.3%; viability, T/C [22]: 15.6%; viability, T/C [23]: 13.4%; viability, T/C [24]: 7.64%; viability, T/C [25]: 5.08%; viability, T/C [26]: 4.84%; viability, T/C [27]: 10.1%; viability, T/C [28]: 7.13%; viability, T/C [29]: 6.18%; viability, T/C [30]: 5.7%; viability, T/C [31]: 7.69%; viability, T/C [32]: 7.5%; viability, T/C [33]: 9.02%; viability, T/C [34]: 9.74%; viability, T/C [35]: 6.25%; viability, T/C [36]: 6.05%; viability, T/C [37]: 2.13%; viability, T/C [38]: 3.81%; viability, T/C [39]: 3.72%; viability, T/C [40]: 1.54%; viability, T/C [41]: 2.76%; viability, T/C [42]: 1%

Question: Which results are given for `C#Cc1c(F)ccc2cc(O)cc(-c3ncc4c(N5CC6CCC(C5)N6)nc(OCC56CCCN5CC(F)C6)nc4c3F)c12` (stereo not drawn)?
Answer: viability, T/C (compound 0.0316 µM): 88.1% and 89.3%; viability, T/C (compound 0.1 µM): 88.5% and 80.7%; viability, T/C (compound 0.316 µM): 73.6% and 65.8%; viability, T/C (compound 1 µM): 68.5% and 81%; viability, T/C (compound 3.16 µM): 92% and 112%; viability, T/C (compound 10 µM): 120% and 91.5%; pIC50 (curve of compound): < 5.00

Question: With `CC(CO)NC(=O)c1cc(-c2ccc(Cl)cc2)nn(-c2cnn(C)c2)c1=O` (stereo not drawn) + CN1CCN(c2cc(C(=O)Nc3cc4cc(-c5cnn(C)c5)ccc4cn3)ccn2)CC1 as the compound, how does the pIC50 [1] read?
Answer: < 5.00

Question: What about the pIC50 [2] of the same compound?
Answer: < 5.00

Question: And the pIC50 [3]?
Answer: < 5.00

Question: What about the pIC50 [4] of the same compound?
Answer: > 7.50

Question: And the pIC50 [5]?
Answer: > 7.50

Question: What about the pIC50 [6] of the same compound?
Answer: > 7.50

Question: What about the viability, T/C [7] of the same compound?
Answer: 141%

Question: What about the viability, T/C [8] of the same compound?
Answer: 195%

Question: And the viability, T/C [9]?
Answer: 196%

Question: What about the viability, T/C [10] of the same compound?
Answer: 216%

Question: What about the viability, T/C [11] of the same compound?
Answer: 205%

Question: What about the viability, T/C [12] of the same compound?
Answer: 173%

Question: What about the viability, T/C [13] of the same compound?
Answer: 113%

Question: And the viability, T/C [14]?
Answer: 142%

Question: And the viability, T/C [15]?
Answer: 151%

Question: And the viability, T/C [16]?
Answer: 152%

Question: What about the viability, T/C [17] of the same compound?
Answer: 152%

Question: What about the viability, T/C [18] of the same compound?
Answer: 148%

Question: What about the viability, T/C [19] of the same compound?
Answer: 62.6%

Question: And the viability, T/C [20]?
Answer: 63.5%

Question: What about the viability, T/C [21] of the same compound?
Answer: 68.9%

Question: And the viability, T/C [22]?
Answer: 77.1%

Question: What about the viability, T/C [23] of the same compound?
Answer: 73%

Question: And the viability, T/C [24]?
Answer: 76.2%

Question: What about the viability, T/C [25] of the same compound?
Answer: 8.6%

Question: And the viability, T/C [26]?
Answer: 5.35%

Question: And the viability, T/C [27]?
Answer: 7.74%

Question: What about the viability, T/C [28] of the same compound?
Answer: 6.71%

Question: What about the viability, T/C [29] of the same compound?
Answer: 4.91%

Question: And the viability, T/C [30]?
Answer: 5.72%

Question: And the viability, T/C [31]?
Answer: 7.85%

Question: What about the viability, T/C [32] of the same compound?
Answer: 5.72%

Question: What about the viability, T/C [33] of the same compound?
Answer: 7.76%

Question: And the viability, T/C [34]?
Answer: 7.17%

Question: And the viability, T/C [35]?
Answer: 7.12%

Question: And the viability, T/C [36]?
Answer: 7.82%

Question: And the viability, T/C [37]?
Answer: 4.35%

Question: What about the viability, T/C [38] of the same compound?
Answer: 2.99%

Question: What about the viability, T/C [39] of the same compound?
Answer: 3.66%

Question: And the viability, T/C [40]?
Answer: 2.79%

Question: And the viability, T/C [41]?
Answer: 4.67%

Question: And the viability, T/C [42]?
Answer: 2.07%
